Our source for the IC50 and EC50 values is US20120101093A1, “SUBSTITUTED IMIDAZO[1,2-A]PYRIDINE DERIVATIVES, PHARMACEUTICAL COMPOSITIONS, AND METHODS OF USE AS BETA-SECRETASE INHIBITORS” (HIGH POINT PHARMACEUTICALS, LLC, priority 2009, published 2012).

The target of one assay is T1, BACE-1 enzyme (Homo sapiens, UniProt P56817).
T1 construct: purchased R & D Systems 931AS
In words: BACE Fluorescence Resonance Energy Transfer (FRET) Assay. To be noted: pH 4-4.5, 30 min pre-incubation, about 1.5 hours reaction. It counts as biochemical. An outline of the steps:
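Fluorescence (ex 540, em 585 nm) after ~1.5 h room-temperature cleavage of a quenched rhodamine peptide tracks BACE-1 activity. Enzyme and compound first sit 30 min in pH 4-4.5 acetate buffer with CHAPS, Triton X-100, EDTA, 7.5% DMSO. Values given as IC50 or % inhibition.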

For assay [1], the system named is Aβ1-40 secreted from HEK293 cells stably expressing wildtype human APP695 protein (HEK-APPwt cells). Kind of assay: Aβ Cell Based Assay (Aβ1-40 secretion, ELISA). To be noted: 6 hours incubation, reduction of Aβ1-40 secretion. An outline of the steps: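 Cells in DMEM with 2% FBS exposed to ten compound concentrations for 6 h at 37 °C. Secreted Aβ1-40 in supernatant quantified by sandwich ELISA (82E1 capture, TMB, OD450). EC50 from percent inhibition, DAPT defining 100% inhibition, non-linear fit.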
(In general: ELISA stands for enzyme-linked immunosorbent assay.)

The structures appear in SMILES notation.

T1 sequence (P56817 46-457 limits assumed): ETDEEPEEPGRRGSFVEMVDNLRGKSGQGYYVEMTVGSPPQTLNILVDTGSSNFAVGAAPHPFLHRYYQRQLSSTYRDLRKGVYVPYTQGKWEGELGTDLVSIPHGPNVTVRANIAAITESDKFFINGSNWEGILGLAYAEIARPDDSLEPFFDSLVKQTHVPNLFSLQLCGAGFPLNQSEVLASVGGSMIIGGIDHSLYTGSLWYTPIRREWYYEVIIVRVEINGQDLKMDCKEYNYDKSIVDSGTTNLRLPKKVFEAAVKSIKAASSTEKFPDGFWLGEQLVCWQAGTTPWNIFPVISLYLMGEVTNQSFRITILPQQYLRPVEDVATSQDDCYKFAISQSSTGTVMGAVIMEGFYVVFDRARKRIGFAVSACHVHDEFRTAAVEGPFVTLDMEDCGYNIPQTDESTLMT

`Cc1cccc2nc(C(=O)Nc3nc4cc(OCc5ccccc5)ccc4[nH]3)cn12` [Example 12, 5-Methyl-imidazo[1,2-a]pyridine-2-carboxylic acid (5-benzyloxy-1H-benzoimidazol-2-yl)-amide] yielded an IC50 on BACE-1 enzyme of 0.2 µM. The compound further registered an EC50 in assay [1] (Homo sapiens, HEK293, 6 h) of 2.01 µM.
For `Cc1cccc2nc(C(=O)Nc3nc4cc(-c5cccc(C(F)(F)F)c5O)ccc4[nH]3)cn12` [Example 109, 5-Methyl-imidazo[1,2-a]pyridine-2-carboxylic acid [5-(2-hydroxy-3-trifluoromethyl-phenyl)-1H-benzoimidazol-2-yl]-amide], in that order: 0.87 µM and 4.85 µM.
At BACE-1 enzyme, `CN(C)Cc1ccn2cc(C(=O)Nc3nc4cc(-c5cccc(C(F)(F)F)c5)ccc4[nH]3)nc2c1` [Example 202, 7-Dimethylaminomethyl-imidazo[1,2-a]pyridine-2-carboxylic acid [5-(3-trifluoromethyl-phenyl)-1H-benzoimidazol-2-yl]-amide] came in with an IC50 of 0.9 µM. Also, the EC50 in assay [1] (Homo sapiens, HEK293, 6 h) was 4.54 µM.
For `Cc1cccc2nc(C(=O)Nc3nc4cc(C5CCC(C)CC5)ccc4[nH]3)cn12` (stereo not shown) [Example 119, 5-Methyl-imidazo[1,2-a]pyridine-2-carboxylic acid [5-(4-methyl-cyclohexyl)-1H-benzoimidazol-2-yl]-amide], in that order: 0.27 µM and 1.82 µM.
For `CN(C)C(=O)c1cccc2nc(C(=O)Nc3nc4cc(-c5cc(F)cc(Cl)c5)ccc4[nH]3)cn12` [Example 227, Imidazo[1,2-a]pyridine-2,5-dicarboxylic acid 2-{[5-(3-chloro-5-fluoro-phenyl)-1H-benzoimidazol-2-yl]-amide} 5-dimethylamide] the same measures were 0.31 µM and 1.65 µM.
For `COCCNc1cccc2nc(C(=O)Nc3nc4cc(-c5cccc(C(F)(F)F)c5)ccc4[nH]3)cn12` [Example 122, 5-(2-Methoxy-ethylamino)-imidazo[1,2-a]pyridine-2-carboxylic acid [5-(3-trifluoromethyl-phenyl)-1H-benzoimidazol-2-yl]-amide] the same measures were 0.54 µM and 1.5 µM.
`O=C(Nc1nc2cc(-c3cccc(C(F)(F)F)c3)ccc2[nH]1)c1cn2c(N3CCOCC3)cccc2n1` [Example 123, 5-Morpholin-4-yl-imidazo[1,2-a]pyridine-2-carboxylic acid [5-(3-trifluoromethyl-phenyl)-1H-benzoimidazol-2-yl]-amide] returned an IC50 at BACE-1 enzyme of 2.11 µM. Besides, the concentration giving a half-maximal response (EC50) in assay [1] (Homo sapiens, HEK293, 6 h) was 1.11 µM.
`CCOc1ccc(-c2ccc3[nH]c(NC(=O)c4cn5c(C)cccc5n4)nc3c2)cc1C` [Example 107, 5-Methyl-imidazo[1,2-a]pyridine-2-carboxylic acid [5-(4-ethoxy-3-methyl-phenyl)-1H-benzoimidazol-2-yl]-amide] displayed an IC50 against BACE-1 enzyme of 0.84 µM. In assay [1] (Homo sapiens, HEK293, 6 h), this compound had an EC50 of 2.95 µM.
`CCOc1ccc(-c2ccc3[nH]c(NC(=O)c4cn5c(C)cccc5n4)nc3c2)cc1Cl` [Example 79, 5-Methyl-imidazo[1,2-a]pyridine-2-carboxylic acid [5-(3-chloro-4-ethoxy-phenyl)-1H-benzoimidazol-2-yl]-amide] came in with an IC50 at BACE-1 enzyme of 1.82 µM. Moreover, the concentration for a half-maximal effect (EC50) in assay [1] came to 1.54 µM.
`O=C(Nc1nc2cc(OCc3ccc(C(F)(F)F)cc3)ccc2[nH]1)c1cn2cc(-c3ccccc3)ccc2n1` [Example 52, 6-Phenyl-imidazo[1,2-a]pyridine-2-carboxylic acid [5-(4-trifluoromethyl-benzyloxy)-1H-benzoimidazol-2-yl]-amide] had an IC50 against BACE-1 enzyme of 5.28 µM. In assay [1] (Homo sapiens, HEK293, 6 h), this compound displayed an EC50 of 0.51 µM.
`Cc1cccc2nc(C(=O)Nc3nc4cc(-c5ccsc5)ccc4[nH]3)cn12` [Example 102, 5-Methyl-imidazo[1,2-a]pyridine-2-carboxylic acid (5-thiophen-3-yl-1H-benzoimidazol-2-yl)-amide] displayed an IC50 against BACE-1 enzyme of 0.45 µM. This compound returned an EC50 in assay [1] (Homo sapiens, HEK293, 6 h) of 2.46 µM.
For `CN1CCC(Oc2cccc3nc(C(=O)Nc4nc5cc(-c6cccc(C(F)(F)F)c6)ccc5[nH]4)cn23)CC1` [Example 3, 5-(1-Methyl-piperidin-4-yloxy)-imidazo[1,2-a]pyridine-2-carboxylic acid[5-(3-trifluoromethyl-phenyl)-1H-benzoimidazol-2-yl]-amide], in that order: 1.15 µM and 4.02 µM.
For `Cc1cccc2nc(C(=O)Nc3nc4cc(-c5ccc(C(C)(C)C)cc5)ccc4[nH]3)cn12` [Example 77, 5-Methyl-imidazo[1,2-a]pyridine-2-carboxylic acid [5-(4-tert-butyl-phenyl)-1H-benzoimidazol-2-yl]-amide] the same measures were 0.61 µM and 0.85 µM.
At BACE-1 enzyme, `CCOC(=O)c1cccc(-c2ccc3[nH]c(NC(=O)c4cn5c(C)cccc5n4)nc3c2)c1` [Example 72, 3-{2-[(5-Methyl-imidazo[1,2-a]pyridine-2-carbonyl)-amino]-1H-benzoimidazol-5-yl}-benzoic acid ethyl ester] had an IC50 of 0.62 µM. Besides, it took 1.51 µM to reach a half-maximal effect in assay [1] (Homo sapiens, HEK293, 6 h) (EC50).
Regarding `COCCCNCc1ccn2cc(C(=O)Nc3nc4cc(-c5cccc(C(F)(F)F)c5)ccc4[nH]3)nc2c1` [Example 209, 7-[(3-Methoxy-propylamino)-methyl]-imidazo[1,2-a]pyridine-2-carboxylic acid [5-(3-trifluoromethyl-phenyl)-1H-benzoimidazol-2-yl]-amide], the IC50 on BACE-1 enzyme is 0.22 µM. Also, the EC50 in assay [1] (Homo sapiens, HEK293, 6 h) was 4.91 µM.
For `O=C(Nc1nc2cc(-c3cccc(C(F)(F)F)c3)ccc2[nH]1)c1cn2cc(F)ccc2n1` [Example 112, 6-Fluoro-imidazo[1,2-a]pyridine-2-carboxylic acid [5-(3-trifluoromethyl-phenyl)-1H-benzoimidazol-2-yl]-amide], in that order: 0.43 µM and 1.94 µM.
For `Cc1cccn2cc(C(=O)Nc3nc4cc(-c5cccc(OC(F)(F)F)c5)ccc4[nH]3)nc12` [Example 28, 8-Methyl-imidazo[1,2-a]pyridine-2-carboxylic acid [5-(3-trifluoromethoxy-phenyl)-1H-benzoimidazol-2-yl]-amide] the same measures were 0.32 µM and 2.13 µM.
For `CNCc1cccc2nc(C(=O)Nc3nc4cc(-c5cccc(C(F)(F)F)c5)ccc4[nH]3)cn12` [Example 170, 5-Methylaminomethyl-imidazo[1,2-a]pyridine-2-carboxylic acid [5-(3-trifluoromethyl-phenyl)-1H-benzoimidazol-2-yl]-amide] the same measures were 0.47 µM and 2.48 µM.
The compound `Cc1cccc2nc(C(=O)Nc3nc4cc(OCc5cc(F)cc(C(F)(F)F)c5)ccc4[nH]3)cn12` [Example 43, 5-Methyl-imidazo[1,2-a]pyridine-2-carboxylic acid [5-(3-fluoro-5-trifluoromethyl-benzyloxy)-1H-benzoimidazol-2-yl]-amide] showed an IC50 on BACE-1 enzyme of 0.3 µM. In addition, in assay [1] (Homo sapiens, HEK293, 6 h), the EC50 is 0.58 µM.
For `Cc1cccn2cc(C(=O)Nc3nc4cc(-c5cccc(Cl)c5)ccc4[nH]3)nc12` [Example 51, 8-Methyl-imidazo[1,2-a]pyridine-2-carboxylic acid [5-(3-chloro-phenyl)-1H-benzoimidazol-2-yl]-amide], in that order: 0.96 µM and 1.84 µM.
`Cc1cccc2nc(C(=O)Nc3nc4cc(-c5ccc(Cl)c(C(F)(F)F)c5)ccc4[nH]3)cn12` [Example 47, 5-Methyl-imidazo[1,2-a]pyridine-2-carboxylic acid [5-(4-chloro-3-trifluoromethyl-phenyl)-1H-benzoimidazol-2-yl]-amide] had an IC50 at BACE-1 enzyme of 0.42 µM. In addition, the EC50 in assay [1] (Homo sapiens, HEK293, 6 h) came to 0.08 µM.
For `O=C(Nc1nc2cc(OCc3ccc(C(F)(F)F)cc3)ccc2[nH]1)c1cn2c(C(F)(F)F)cccc2n1` [Example 49, 5-Trifluoromethyl-imidazo[1,2-a]pyridine-2-carboxylic acid [5-(4-trifluoromethyl-benzyloxy)-1H-benzoimidazol-2-yl]-amide] the same measures were 0.17 µM and 8.76 µM.
For `Cc1cccn2cc(C(=O)Nc3nc4cc(-c5ccc(Cl)cc5)ccc4[nH]3)nc12` [Example 69, 8-Methyl-imidazo[1,2-a]pyridine-2-carboxylic acid [5-(4-chloro-phenyl)-1H-benzoimidazol-2-yl]-amide] the same measures were 0.46 µM and 6.97 µM.
For `Cc1cccc2nc(C(=O)Nc3nc4cc(-c5ccc(Cl)cc5)ccc4[nH]3)cn12` [Example 68, 5-Methyl-imidazo[1,2-a]pyridine-2-carboxylic acid [5-(4-chloro-phenyl)-1H-benzoimidazol-2-yl]-amide], in that order: 0.48 µM and 1.61 µM.
In turn, `Cc1cccc2nc(C(=O)Nc3nc4cc(/C=C/c5ccc(C(F)(F)F)cc5)ccc4[nH]3)cn12` [Example 61, 5-Methyl-imidazo[1,2-a]pyridine-2-carboxylic acid {5-[(E)-2-(4-trifluoromethyl-phenyl)-vinyl]-1H-benzoimidazol-2-yl}-amide] registered an IC50 at BACE-1 enzyme of 0.22 µM. Also, in assay [1] (Homo sapiens, HEK293, 6 h), the EC50 stood at 0.28 µM.
As for `CN1CCC(c2cccc3nc(C(=O)Nc4nc5cc(-c6cccc(C(F)(F)F)c6)ccc5[nH]4)cn23)CC1` [Example 219, 5-(1-methylpiperidin-4-yl)-N-{5-[3-(trifluoromethyl)phenyl]-1H-benzimidazol-2-yl}imidazo[1,2-a]pyridine-2-carboxamide], the midpoint of inhibition against BACE-1 enzyme, the IC50, lay at 0.9 µM. This compound displayed an EC50 in assay [1] (Homo sapiens, HEK293, 6 h) of 7.48 µM.

As usually defined, the IC50 is the point on the concentration scale where inhibition reaches its midpoint. Broadly, the EC50 is the concentration giving half of the maximal effect.
